Data as given in patent US10662205B2, “Cyclic boronic acid ester derivatives and therapeutic uses thereof” (priority 2014, dated 2020).
Read-outs that look alike come from different tables or passages of the source.

Columns and labels:
KP1009 (CTX-M-15) [1] = assay: Aztreonam potentiation (MPC@4); type: cell-based; conditions: aztreonam 4 μg/mL
KP1009 (CTX-M-15) [2] = assay: Tigemonam potentiation (MPC@4); type: cell-based
KP1004 (KPC-2) [3] = assay: Aztreonam potentiation (MPC@4); type: cell-based; conditions: aztreonam 4 μg/mL
EC1010 (CMY-6) [4] = assay: Tigemonam potentiation (MPC@4); type: cell-based; conditions: tigemonam 4 μg/mL; EC1010, CMY-6
KP1004 (KPC-2) [5] = assay: Biapenem potentiation (MPC@1); conditions: biapenem 1 μg/mL
ec302 (TEM-10) [6] = assay: Tigemonam potentiation (MPC@4); type: cell-based; conditions: tigemonam 4 μg/mL
ec308 (SHV-5) [7] = assay: Tigemonam potentiation (MPC@4); type: cell-based; conditions: tigemonam 4 μg/mL
P99 = P99 (Enterobacter cloacae, UniProt P05364); assay: biochemical; conditions: nitrocefin reporter substrate; 10 min preincubation; read-out: Ki P99, NCF
Chain of P99 (P05364 21-381): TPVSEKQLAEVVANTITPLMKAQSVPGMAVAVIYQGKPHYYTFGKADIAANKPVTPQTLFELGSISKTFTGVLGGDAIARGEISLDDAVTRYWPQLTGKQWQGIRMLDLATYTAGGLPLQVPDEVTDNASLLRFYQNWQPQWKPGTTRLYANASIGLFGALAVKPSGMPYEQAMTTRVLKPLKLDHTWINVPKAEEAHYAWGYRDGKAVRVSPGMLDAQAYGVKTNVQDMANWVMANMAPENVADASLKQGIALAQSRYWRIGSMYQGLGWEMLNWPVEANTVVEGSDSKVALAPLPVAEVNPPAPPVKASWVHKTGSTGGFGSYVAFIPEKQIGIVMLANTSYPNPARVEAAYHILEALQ
Experimental: (§1) Ki values of inhibition of purified class A, C and D enzymes were determined spectrophotometrically using nitrocefin as reporter substrate. Purified enzymes were mixed with various concentrations of inhibitors in reaction buffer and incubated for 10 min at room temperature. Nitrocefin was added and substrate cleavage profiles were recorded at 490 nm every 10 sec for 10 min.

ECL1002 [8] = assay: Aztreonam potentiation (MPC@4); type: cell-based; conditions: aztreonam 4 μg/mL
Oral pharmacokinetics = type: in vivo; conditions: rat, plasma, rats, n=3, read-out: Range of % Oral Bioavailability
Experimental: Several compounds were tested for their oral pharmacokinetics. Rats (n=3 per compound) were administered a single oral dose. Oral doses were administered as a bolus. Plasma (˜0.3 mL) samples were collected from each rat at designated time points up to 24 hours. Blood samples were centrifuged within 5 min of collection at 12000 g for 5 min to obtain plasma. The plasma samples were stored at −80° C. until analyzed. Data were analyzed using WinNonlin.

PAM1154/KPC-2 = assay: Biapenem potentiation MPC64, efflux deficient strain; type: cell-based, Pseudomonas aeruginosa; parameters: unit not given here; conditions: efflux deficient (lacks MexAB-OprM); decrease biapenem MIC 64-fold, 32 to 0.5 μg/ml
Experimental: (§2) Efflux of BLIs from Pseudomonas aeruginosa by the MexAB-OprM efflux pump was also evaluated. The plasmid expressing the gene encoding KPC-2 was introduced into two strains of P. aeruginosa, PAM1032 and PAM1154 that overexpressed or lacked MexAB-OprM, respectively. Due to expression of KPC-2 both strains became resistant to biapenem. […] Potency of BLIs to potentiate biapenem in these strains was determined. […] The ratio of MPC64 values for each BLI in PAM1032/KPC-2 (efflux proficient) and PAM1154/KPC-2 (efflux deficient) was determined to generate the Efflux Index (EI).

CMY-2 = CMY-2 (Klebsiella pneumoniae, UniProt Q48434); assay: Inhibition of nitrocefin cleavage by purified enzyme (Ki); type: biochemical; conditions: nitrocefin reporter substrate; 10 min preincubation; read-out: Ki CMY-2, NCF
Chain of CMY-2 (Q48434 21-381, species assumed): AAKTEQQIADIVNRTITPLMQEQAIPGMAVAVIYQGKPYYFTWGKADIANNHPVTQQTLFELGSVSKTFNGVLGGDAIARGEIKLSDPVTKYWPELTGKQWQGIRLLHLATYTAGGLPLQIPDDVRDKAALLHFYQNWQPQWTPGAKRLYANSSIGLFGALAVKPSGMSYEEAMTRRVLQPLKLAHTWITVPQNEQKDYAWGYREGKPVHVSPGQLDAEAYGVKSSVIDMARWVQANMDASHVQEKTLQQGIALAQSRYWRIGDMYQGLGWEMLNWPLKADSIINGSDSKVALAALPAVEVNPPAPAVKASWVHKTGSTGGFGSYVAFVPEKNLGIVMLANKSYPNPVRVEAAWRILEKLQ
Experimental: (§3) Ki values of inhibition of purified class A, C and D enzymes were determined spectrophotometrically using nitrocefin as reporter substrate. Purified enzymes were mixed with various concentrations of inhibitors in reaction buffer and incubated for 10 min at room temperature. Nitrocefin was added and substrate cleavage profiles were recorded at 490 nm every 10 sec for 10 min. These experiments confirmed that the described compounds are inhibitors with a broad-spectrum of activity towards various β-lactamases.

KPC-2 = KPC-2 (Klebsiella pneumoniae, UniProt Q9F663); assay: as above; type: biochemical; conditions: nitrocefin reporter substrate; 10 min preincubation; read-out: Ki KPC-2, NCF
Chain of KPC-2 (Q9F663 25-293, looked up, species assumed): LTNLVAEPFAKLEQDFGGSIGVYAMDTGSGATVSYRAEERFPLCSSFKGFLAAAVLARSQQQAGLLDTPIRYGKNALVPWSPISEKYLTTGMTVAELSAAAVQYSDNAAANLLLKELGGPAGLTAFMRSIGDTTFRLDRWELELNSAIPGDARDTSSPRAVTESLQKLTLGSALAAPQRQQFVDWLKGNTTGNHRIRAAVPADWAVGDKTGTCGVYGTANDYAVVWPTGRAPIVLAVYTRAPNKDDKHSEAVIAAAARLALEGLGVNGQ
Experimental: as §3

OXA-48 = OXA-48 (Klebsiella pneumoniae, UniProt Q6XEC0); assay: as above; type: biochemical; conditions: nitrocefin reporter substrate; 10 min preincubation; read-out: Ki OXA-48, NCF
Chain of OXA-48 (Q6XEC0 23-265, looked up, species assumed): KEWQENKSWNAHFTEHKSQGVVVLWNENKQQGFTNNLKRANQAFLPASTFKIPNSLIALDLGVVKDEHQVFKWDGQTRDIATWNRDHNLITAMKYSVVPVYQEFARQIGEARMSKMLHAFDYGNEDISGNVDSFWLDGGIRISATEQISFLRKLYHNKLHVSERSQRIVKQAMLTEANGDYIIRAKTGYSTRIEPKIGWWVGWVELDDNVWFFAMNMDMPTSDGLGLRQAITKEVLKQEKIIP
Experimental: as §3

KP1010 (SHV-12) [9] = assay: Aztreonam potentiation (MPC@4); type: cell-based; conditions: aztreonam 4 μg/mL
KP1010 (SHV-12) [10] = assay: Tigemonam potentiation (MPC@4); type: cell-based
ec308 (SHV-5) [11] = assay: Aztreonam potentiation (MPC@4); type: cell-based; conditions: aztreonam 4 μg/mL
KP1005 (CTX-M-14) [12] = assay: Aztreonam potentiation (MPC@4); type: cell-based; conditions: aztreonam 4 μg/mL
SHV-12 = SHV-12 (Klebsiella pneumoniae, UniProt P0AD64, E235K/G234S/L31Q); assay: Inhibition of nitrocefin cleavage by purified enzyme (Ki); type: biochemical
Chain of SHV-12 (P0AD64 22-286 L31Q/G234S/E235K): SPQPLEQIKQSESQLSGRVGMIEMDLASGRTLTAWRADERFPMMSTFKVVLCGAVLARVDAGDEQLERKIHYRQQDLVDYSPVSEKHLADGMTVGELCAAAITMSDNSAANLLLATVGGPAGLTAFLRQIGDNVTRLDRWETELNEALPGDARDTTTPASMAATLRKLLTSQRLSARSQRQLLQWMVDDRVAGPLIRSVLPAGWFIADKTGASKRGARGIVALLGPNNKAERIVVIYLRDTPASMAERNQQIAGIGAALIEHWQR
Experimental: as §1

CTX-M-14 = CTX-M-14 (Escherichia coli, UniProt Q9L5C7); assay: as above; type: biochemical; conditions: nitrocefin reporter substrate; 10 min preincubation; read-out: Ki CTX-M-14, NCF
Chain of CTX-M-14 (Q9L5C7 29-291): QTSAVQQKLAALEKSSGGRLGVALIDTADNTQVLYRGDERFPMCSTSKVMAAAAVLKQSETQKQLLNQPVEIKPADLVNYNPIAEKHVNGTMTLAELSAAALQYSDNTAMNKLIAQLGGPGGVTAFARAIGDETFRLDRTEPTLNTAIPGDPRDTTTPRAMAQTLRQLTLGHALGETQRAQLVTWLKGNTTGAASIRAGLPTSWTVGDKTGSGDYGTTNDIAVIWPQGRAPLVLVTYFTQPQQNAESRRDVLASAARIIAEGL
Experimental: as §1

ECL1002 [13] = assay: Tigemonam potentiation (MPC@4); type: cell-based; conditions: tigemonam 4 μg/mL
EC1010 (CMY-6) [14] = assay: Aztreonam potentiation (MPC@4); type: cell-based; conditions: aztreonam 4 μg/mL
KP1005 (CTX-M-14) [15] = assay: Tigemonam potentiation (MPC@4); type: cell-based; conditions: tigemonam 4 μg/mL
KP1086 (OXA-48) = assay: Biapenem potentiation (MPC@1); conditions: biapenem 1 μg/mL
PAM1032/KPC-2 = assay: Biapenem potentiation MPC64, efflux proficient strain; type: cell-based, Pseudomonas aeruginosa; parameters: unit not given here; conditions: efflux proficient (MexAB-OprM overexpressed); decrease biapenem MIC 64-fold, 32 to 0.5 μg/ml
Experimental: as §2

ec302 (TEM-10) [16] = assay: Aztreonam potentiation (MPC@4); type: cell-based; conditions: aztreonam 4 μg/mL

Row | Compound | MPC@4 aztreonam potentiation (KP1009 (CTX-M-15) [1]) | MPC@4 tigemonam potentiation (KP1009 (CTX-M-15) [2]) | MPC@4 aztreonam potentiation (KP1004 (KPC-2) [3]) | MPC@4 tigemonam potentiation (EC1010 (CMY-6) [4]) | MPC@1 biapenem potentiation (KP1004 (KPC-2) [5]) | MPC@4 tigemonam potentiation (ec302 (TEM-10) [6]) | MPC@4 tigemonam potentiation (ec308 (SHV-5) [7]) | Ki (P99) [nM] | MPC@4 aztreonam potentiation (ECL1002 [8]) | PAM1154/KPC-2 Biapenem MPC64 (PAM1154/KPC-2) | Ki (KPC-2) [nM] | Ki (OXA-48) [nM] | MPC@4 aztreonam potentiation (KP1010 (SHV-12) [9]) | MPC@4 tigemonam potentiation (KP1010 (SHV-12) [10]) | MPC@4 aztreonam potentiation (ec308 (SHV-5) [11]) | MPC@4 aztreonam potentiation (KP1005 (CTX-M-14) [12]) | Ki (SHV-12) [nM] | Ki (CTX-M-14) [nM] | MPC@4 tigemonam potentiation (ECL1002 [13]) | MPC@4 aztreonam potentiation (EC1010 (CMY-6) [14]) | further results
1 | Cn1cnnc1SCC(=O)N[C@H]1CC=C[C@@H]2CC(=O)OB1O2 [Compound 5, 2-(4-METHYL-4H-1,2,4-TRIAZOL-3-YLTHIO)-N-((2R,6S)-8-OXO-9,10-DIOXA-1-BORABICYCLO[4.3.1]DEC-4-EN-2-YL)ACETAMIDE] | X (X = MPC@4 ≤ 5 μg/mL) | X (key: X = MPC@4 ≤ 5 μg/mL; Y = 5 μg/mL < MPC@4 ≤ 20 μg/mL; Z = MPC@4 > 20 μg/mL) | Y (Y = 5 μg/mL < MPC@4 ≤ 20 μg/mL) | X (X = MPC@4 ≤ 5 μg/mL) | X (X = MPC@1 ≤ 5 μg/mL) | Z (Z = MPC@4 > 20 μg/mL) | X (X = MPC@4 ≤ 5 μg/mL) | < 100 | X (X = MPC@4 ≤ 5 μg/mL) | 20 | 100 to 1000 | 100 to 1000 | X (X = MPC@4 ≤ 5 μg/mL) | X (key: X = MPC@4 ≤ 5 μg/mL; Y = 5 μg/mL < MPC@4 ≤ 20 μg/mL; Z = MPC@4 > 20 μg/mL) | X (X = MPC@4 ≤ 5 μg/mL) | X (X = MPC@4 ≤ 5 μg/mL) | < 100 | < 100 | X (X = MPC@4 ≤ 5 μg/mL) | X (X = MPC@4 ≤ 5 μg/mL) | bioavailability (Oral pharmacokinetics; single oral dose 50 mg/kg): 2.5 to 3%; Ki (CMY-2): < 100 nM; MPC@4 tigemonam potentiation (KP1005 (CTX-M-14) [15]): X (X = MPC@4 ≤ 5 μg/mL); MPC@1 biapenem potentiation (KP1086 (OXA-48)): Z (Z = MPC@1 > 20 μg/mL); PAM1032/KPC-2 Biapenem MPC64 (PAM1032/KPC-2): 80
2 | N#CCSCC(=O)N[C@H]1CC=C[C@@H]2CC(=O)OB1O2 [Compound 2, 2-(CYANOMETHYLTHIO)-N-((2R,6S)-8-OXO-9,10-DIOXA-1-BORABICYCLO[4.3.1]DEC-4-EN-2-YL)ACETAMIDE] | X (X = MPC@4 ≤ 5 μg/mL) | X (key: X = MPC@4 ≤ 5 μg/mL; Y = 5 μg/mL < MPC@4 ≤ 20 μg/mL; Z = MPC@4 > 20 μg/mL) | X (X = MPC@4 ≤ 5 μg/mL) | X (X = MPC@4 ≤ 5 μg/mL) | X (X = MPC@1 ≤ 5 μg/mL) | Y (Y = 5 μg/mL < MPC@4 ≤ 20 μg/mL) | X (X = MPC@4 ≤ 5 μg/mL) | < 100 | X (X = MPC@4 ≤ 5 μg/mL) | 5 | 100 to 1000 | 100 to 1000 | X (X = MPC@4 ≤ 5 μg/mL) | X (key: X = MPC@4 ≤ 5 μg/mL; Y = 5 μg/mL < MPC@4 ≤ 20 μg/mL; Z = MPC@4 > 20 μg/mL) | X (X = MPC@4 ≤ 5 μg/mL) | X (X = MPC@4 ≤ 5 μg/mL) | < 100 | < 100 | X (X = MPC@4 ≤ 5 μg/mL) | X (X = MPC@4 ≤ 5 μg/mL) | Ki (CMY-2): < 100 nM; MPC@4 aztreonam potentiation (ec302 (TEM-10) [16]): X (X = MPC@4 ≤ 5 μg/mL); MPC@4 tigemonam potentiation (KP1005 (CTX-M-14) [15]): X (X = MPC@4 ≤ 5 μg/mL); MPC@1 biapenem potentiation (KP1086 (OXA-48)): Z (Z = MPC@1 > 20 μg/mL); PAM1032/KPC-2 Biapenem MPC64 (PAM1032/KPC-2): 80
3 | O=C(CSC(F)F)N[C@H]1CC=C[C@@H]2CC(=O)OB1O2 [Compound 3, 2-(DIFLUOROMETHYLTHIO)-N-((2R,6S)-8-OXO-9,10-DIOXA-1-BORABICYCLO[4.3.1]DEC-4-EN-2-YL)ACETAMIDE] | X (X = MPC@4 ≤ 5 μg/mL) | X (key: X = MPC@4 ≤ 5 μg/mL; Y = 5 μg/mL < MPC@4 ≤ 20 μg/mL; Z = MPC@4 > 20 μg/mL) | X (X = MPC@4 ≤ 5 μg/mL) | X (X = MPC@4 ≤ 5 μg/mL) | X (X = MPC@1 ≤ 5 μg/mL) | Y (Y = 5 μg/mL < MPC@4 ≤ 20 μg/mL) | X (X = MPC@4 ≤ 5 μg/mL) | < 100 | X (X = MPC@4 ≤ 5 μg/mL) | 5 | 100 to 1000 | < 100 | X (X = MPC@4 ≤ 5 μg/mL) | X (key: X = MPC@4 ≤ 5 μg/mL; Y = 5 μg/mL < MPC@4 ≤ 20 μg/mL; Z = MPC@4 > 20 μg/mL) | X (X = MPC@4 ≤ 5 μg/mL) | X (X = MPC@4 ≤ 5 μg/mL) | < 100 | < 100 | X (X = MPC@4 ≤ 5 μg/mL) | X (X = MPC@4 ≤ 5 μg/mL) | bioavailability (Oral pharmacokinetics; single oral dose 30 mg/kg): 28 to 54%; MPC@4 aztreonam potentiation (ec302 (TEM-10) [16]): X (X = MPC@4 ≤ 5 μg/mL); MPC@4 tigemonam potentiation (KP1005 (CTX-M-14) [15]): X (X = MPC@4 ≤ 5 μg/mL); MPC@1 biapenem potentiation (KP1086 (OXA-48)): Z (Z = MPC@1 > 20 μg/mL); PAM1032/KPC-2 Biapenem MPC64 (PAM1032/KPC-2): >80
